Test results from patent EP4722207A1, “OXOISOINDOLINYL-SUBSTITUTED TETRAHYDROPYRIMIDINEDIONE DERIVATIVE AND USE THEREOF” (Gluetacs Therapeutics (Shanghai) Co., Ltd., priority 2023, dated 2024).

Assays:
Assay type in all cases: cell-based
CK1α = target: T1, CK1α (Homo sapiens, UniProt P48729+Q96SW2); experiment: Western-blot assay, substrate protein degradation in hPBMCs: CK1α; conditions: for CK1α substrate protein remaining %: compounds at 50 nM and 500 nM, 24 hours
T1 construct: effects of the compounds of the present disclosure on the expression of target proteins in cells; endogenous in cells; host or cells: human PBMCs (hPBMCs)

IKZF2 = target: T2, IKZF2 (Homo sapiens, UniProt Q96SW2+Q9UKS7); experiment: Western-blot assay, substrate protein degradation in hPBMCs: IKZF2; conditions: for IKZF2 substrate protein remaining %: compounds at 50 nM and 500 nM, 24 hours
T2 construct: effects of the compounds of the present disclosure on the expression of target proteins in cells; endogenous in cells; host or cells: human PBMCs (hPBMCs)

GSPT1 = target: T3, GSPT1 (Homo sapiens, UniProt P15170+Q96SW2); experiment: Western-blot assay, substrate protein degradation in hPBMCs: GSPT1; conditions: for GSPT1 substrate protein remaining %: compounds at 50 nM and 500 nM, 24 hours
T3 construct: effects of the compounds of the present disclosure on the expression of target proteins in cells; endogenous in cells; host or cells: human PBMCs (hPBMCs)

WEE1 = target: T4, WEE1 (Homo sapiens, UniProt P30291+Q96SW2); experiment: Western-blot assay, substrate protein degradation in hPBMCs: WEE1; conditions: for WEE1 substrate protein remaining %: compounds at 50 nM and 500 nM, 24 hours
T4 construct: effects of the compounds of the present disclosure on the expression of target proteins in cells; endogenous in cells; host or cells: human PBMCs (hPBMCs)

IKZF3 = target: T5, IKZF3 (Homo sapiens, UniProt Q96SW2+Q9UKT9); experiment: Western-blot assay, substrate protein degradation in hPBMCs: IKZF3; conditions: for IKZF3 substrate protein remaining %: compounds at 50 nM and 500 nM, 24 hours
T5 construct: effects of the compounds of the present disclosure on the expression of target proteins in cells; endogenous in cells; host or cells: human PBMCs (hPBMCs)

IKZF1 = target: T6, IKZF1 (Homo sapiens, UniProt Q13422+Q96SW2); experiment: Western-blot assay, substrate protein degradation in hPBMCs: IKZF1; conditions: for IKZF1 substrate protein remaining %: compounds at 50 nM and 500 nM, 24 hours
T6 construct: effects of the compounds of the present disclosure on the expression of target proteins in cells; endogenous in cells; host or cells: human PBMCs (hPBMCs)

[1] = 24 hours of compound treatment, 50 nM and 500 nM

T4 sequence (P30291 whole entry): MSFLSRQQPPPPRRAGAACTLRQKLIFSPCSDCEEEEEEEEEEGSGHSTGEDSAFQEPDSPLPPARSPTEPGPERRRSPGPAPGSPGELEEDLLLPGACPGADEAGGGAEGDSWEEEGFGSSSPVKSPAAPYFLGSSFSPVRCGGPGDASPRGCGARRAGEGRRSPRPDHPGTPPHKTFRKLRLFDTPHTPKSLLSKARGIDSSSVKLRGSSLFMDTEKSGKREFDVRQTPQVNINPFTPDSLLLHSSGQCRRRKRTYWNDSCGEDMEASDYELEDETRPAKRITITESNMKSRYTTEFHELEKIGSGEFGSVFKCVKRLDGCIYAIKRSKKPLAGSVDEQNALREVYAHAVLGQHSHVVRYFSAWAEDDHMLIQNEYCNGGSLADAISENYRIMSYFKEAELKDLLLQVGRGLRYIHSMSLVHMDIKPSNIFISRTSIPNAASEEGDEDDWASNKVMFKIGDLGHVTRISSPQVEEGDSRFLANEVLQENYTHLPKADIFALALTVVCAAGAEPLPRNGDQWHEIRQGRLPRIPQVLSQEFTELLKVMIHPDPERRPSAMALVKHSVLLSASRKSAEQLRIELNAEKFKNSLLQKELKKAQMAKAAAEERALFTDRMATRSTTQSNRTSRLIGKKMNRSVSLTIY
T4 sequence (Q96SW2 whole entry): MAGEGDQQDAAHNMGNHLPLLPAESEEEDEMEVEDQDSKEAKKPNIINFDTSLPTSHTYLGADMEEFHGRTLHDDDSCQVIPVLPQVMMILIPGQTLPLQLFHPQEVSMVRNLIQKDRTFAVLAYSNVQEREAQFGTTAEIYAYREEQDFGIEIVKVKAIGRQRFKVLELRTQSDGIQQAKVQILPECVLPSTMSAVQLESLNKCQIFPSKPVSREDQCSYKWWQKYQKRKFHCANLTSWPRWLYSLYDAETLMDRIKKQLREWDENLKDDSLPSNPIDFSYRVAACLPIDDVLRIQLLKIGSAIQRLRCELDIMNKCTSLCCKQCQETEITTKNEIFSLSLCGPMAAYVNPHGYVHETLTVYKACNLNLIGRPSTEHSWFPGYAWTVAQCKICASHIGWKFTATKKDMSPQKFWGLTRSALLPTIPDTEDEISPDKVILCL
T4 sequence (Q16531 whole entry partner): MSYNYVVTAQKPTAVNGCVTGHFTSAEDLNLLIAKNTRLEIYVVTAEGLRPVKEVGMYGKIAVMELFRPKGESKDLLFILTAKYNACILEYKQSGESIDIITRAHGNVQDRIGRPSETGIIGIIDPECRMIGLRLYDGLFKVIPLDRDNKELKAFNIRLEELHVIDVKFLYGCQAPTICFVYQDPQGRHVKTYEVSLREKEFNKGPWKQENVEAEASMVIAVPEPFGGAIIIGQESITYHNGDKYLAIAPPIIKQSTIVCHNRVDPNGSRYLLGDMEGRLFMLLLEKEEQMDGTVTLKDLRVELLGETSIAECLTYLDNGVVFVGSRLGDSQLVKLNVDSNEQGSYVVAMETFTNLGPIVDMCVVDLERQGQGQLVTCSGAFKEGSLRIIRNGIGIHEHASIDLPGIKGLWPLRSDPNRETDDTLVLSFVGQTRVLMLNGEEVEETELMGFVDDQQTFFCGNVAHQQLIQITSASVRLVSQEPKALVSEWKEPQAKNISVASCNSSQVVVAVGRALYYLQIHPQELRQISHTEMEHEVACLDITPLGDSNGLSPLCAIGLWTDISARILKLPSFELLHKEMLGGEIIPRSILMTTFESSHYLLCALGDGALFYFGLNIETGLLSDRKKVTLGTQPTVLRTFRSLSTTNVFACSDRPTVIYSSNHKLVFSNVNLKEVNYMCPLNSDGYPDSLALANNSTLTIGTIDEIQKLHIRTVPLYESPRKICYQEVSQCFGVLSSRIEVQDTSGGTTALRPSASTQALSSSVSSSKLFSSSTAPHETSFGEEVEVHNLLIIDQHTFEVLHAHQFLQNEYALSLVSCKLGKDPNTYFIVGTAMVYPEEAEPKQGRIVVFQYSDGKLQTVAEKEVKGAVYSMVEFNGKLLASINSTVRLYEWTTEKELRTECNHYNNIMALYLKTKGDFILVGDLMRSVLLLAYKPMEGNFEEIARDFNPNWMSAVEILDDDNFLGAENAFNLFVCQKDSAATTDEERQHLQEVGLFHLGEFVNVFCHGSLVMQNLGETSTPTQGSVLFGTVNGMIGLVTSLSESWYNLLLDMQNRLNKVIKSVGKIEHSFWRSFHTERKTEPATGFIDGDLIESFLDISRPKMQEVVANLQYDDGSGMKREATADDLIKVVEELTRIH
T2 sequence (Q9UKS7 whole entry): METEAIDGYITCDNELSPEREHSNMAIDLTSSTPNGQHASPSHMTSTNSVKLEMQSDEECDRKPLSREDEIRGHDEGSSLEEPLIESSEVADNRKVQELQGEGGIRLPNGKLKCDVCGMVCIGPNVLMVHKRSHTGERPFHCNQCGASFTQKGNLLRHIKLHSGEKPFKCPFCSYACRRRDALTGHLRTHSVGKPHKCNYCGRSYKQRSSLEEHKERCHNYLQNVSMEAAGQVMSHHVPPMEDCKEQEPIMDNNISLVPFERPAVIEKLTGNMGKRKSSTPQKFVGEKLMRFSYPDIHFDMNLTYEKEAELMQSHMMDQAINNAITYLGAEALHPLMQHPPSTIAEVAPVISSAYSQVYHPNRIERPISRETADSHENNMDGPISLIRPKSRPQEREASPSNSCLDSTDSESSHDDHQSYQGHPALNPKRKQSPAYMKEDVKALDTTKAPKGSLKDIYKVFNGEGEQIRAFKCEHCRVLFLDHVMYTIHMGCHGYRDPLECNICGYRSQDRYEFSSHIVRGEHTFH
T2 sequence (Q96SW2 whole entry): as the sequence (Q96SW2 whole entry) above
T2 sequence (Q16531 whole entry partner): as the sequence (Q16531 whole entry partner) above
T3 sequence (P15170 whole entry): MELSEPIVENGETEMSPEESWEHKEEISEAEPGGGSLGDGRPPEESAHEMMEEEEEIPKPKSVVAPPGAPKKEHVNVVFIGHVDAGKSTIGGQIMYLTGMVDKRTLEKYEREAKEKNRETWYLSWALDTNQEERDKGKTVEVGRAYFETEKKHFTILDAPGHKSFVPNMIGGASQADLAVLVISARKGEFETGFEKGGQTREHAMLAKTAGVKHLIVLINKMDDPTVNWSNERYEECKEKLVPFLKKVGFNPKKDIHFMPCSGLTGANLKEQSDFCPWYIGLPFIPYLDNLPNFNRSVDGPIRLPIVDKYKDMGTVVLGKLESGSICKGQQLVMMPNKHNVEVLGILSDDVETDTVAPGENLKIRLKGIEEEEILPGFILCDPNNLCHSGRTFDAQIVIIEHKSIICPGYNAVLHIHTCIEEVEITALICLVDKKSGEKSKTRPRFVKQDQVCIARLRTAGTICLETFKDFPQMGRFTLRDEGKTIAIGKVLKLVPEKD
T3 sequence (Q96SW2 whole entry): as the sequence (Q96SW2 whole entry) above
T3 sequence (Q16531 whole entry partner): as the sequence (Q16531 whole entry partner) above
T1 sequence (P48729 whole entry): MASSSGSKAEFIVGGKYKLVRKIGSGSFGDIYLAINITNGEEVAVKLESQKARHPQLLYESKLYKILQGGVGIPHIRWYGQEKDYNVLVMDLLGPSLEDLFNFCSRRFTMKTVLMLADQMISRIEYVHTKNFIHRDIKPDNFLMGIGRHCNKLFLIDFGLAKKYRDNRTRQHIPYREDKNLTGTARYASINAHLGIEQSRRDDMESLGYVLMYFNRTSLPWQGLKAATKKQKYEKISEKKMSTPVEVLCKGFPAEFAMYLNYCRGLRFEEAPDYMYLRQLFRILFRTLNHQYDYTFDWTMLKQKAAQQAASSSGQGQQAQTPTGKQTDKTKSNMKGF
T1 sequence (Q96SW2 whole entry): as the sequence (Q96SW2 whole entry) above
T1 sequence (Q16531 whole entry partner): as the sequence (Q16531 whole entry partner) above
T6 sequence (Q13422 whole entry): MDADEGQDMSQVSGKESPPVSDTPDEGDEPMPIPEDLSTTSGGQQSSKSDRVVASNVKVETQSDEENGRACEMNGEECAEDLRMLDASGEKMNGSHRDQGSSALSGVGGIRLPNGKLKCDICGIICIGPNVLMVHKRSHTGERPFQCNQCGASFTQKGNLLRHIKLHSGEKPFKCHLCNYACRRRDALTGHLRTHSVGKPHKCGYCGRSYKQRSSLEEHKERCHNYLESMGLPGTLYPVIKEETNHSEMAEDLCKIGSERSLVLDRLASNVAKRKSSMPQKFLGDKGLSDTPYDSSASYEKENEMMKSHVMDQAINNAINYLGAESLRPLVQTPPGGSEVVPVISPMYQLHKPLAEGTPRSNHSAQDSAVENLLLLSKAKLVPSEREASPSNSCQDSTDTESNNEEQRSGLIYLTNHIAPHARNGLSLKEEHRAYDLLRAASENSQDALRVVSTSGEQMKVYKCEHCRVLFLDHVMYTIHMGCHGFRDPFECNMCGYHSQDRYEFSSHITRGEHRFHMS
T6 sequence (Q96SW2 whole entry): as the sequence (Q96SW2 whole entry) above
T6 sequence (Q16531 whole entry partner): as the sequence (Q16531 whole entry partner) above

## O=C1CCN(N2Cc3cc(CN4CCN(c5ccncc5Br)CC4)ccc3C2=O)C(=O)N1 [GT-05439, 1-(5-((4-(3-bromopyridin-4-yl)piperazin-1-yl)methyl)-1-oxoisoindolin-2-yl)dihydropyrimidine-2,4(1H,3H)-dione]
CK1α; [1]
  substrate protein remaining % CK1α: A (0% ≤ substrate protein remaining % ≤ 80%)
CK1α
  CK1α substrate protein remaining %: B ("B" is defined as 80%< substrate protein remaining %≤ 100%)
IKZF2; [1]
  substrate protein remaining % IKZF2: B (80%< substrate protein remaining %≤ 100%)
IKZF2
  IKZF2 substrate protein remaining %: B ("B" is defined as 80%< substrate protein remaining %≤ 100%)
GSPT1; [1]
  substrate protein remaining % GSPT1: A (0% ≤ substrate protein remaining % ≤ 80%)
GSPT1
  GSPT1 substrate protein remaining %: B ("B" is defined as 80%< substrate protein remaining %≤ 100%)
WEE1; [1]
  substrate protein remaining % WEE1: A (0% ≤ substrate protein remaining % ≤ 80%)
WEE1
  WEE1 substrate protein remaining %: A ("A" is defined as 0% ≤ substrate protein remaining % ≤ 80%)
IKZF3; [1]
  substrate protein remaining % IKZF3: A (0% ≤ substrate protein remaining % ≤ 80%)
IKZF3
  IKZF3 substrate protein remaining %: B ("B" is defined as 80%< substrate protein remaining %≤ 100%)
IKZF1; [1]
  substrate protein remaining % IKZF1: B (80%< substrate protein remaining %≤ 100%)
IKZF1
  IKZF1 substrate protein remaining %: B ("B" is defined as 80%< substrate protein remaining %≤ 100%)

## O=C1CCN(N2Cc3cc(CN4CCN(c5ccncc5F)CC4)ccc3C2=O)C(=O)N1 [GT-05697, 1-(5-((4-(3-fluoropyridin-4-yl)piperazin-1-yl)methyl)-1-oxoisoindolin-2-yl)dihydropyrimidine-2,4(1H,3H)-dione]
CK1α
  CK1α substrate protein remaining %: B ("B" is defined as 80%< substrate protein remaining %≤ 100%)
IKZF2
  IKZF2 substrate protein remaining %: B ("B" is defined as 80%< substrate protein remaining %≤ 100%)
GSPT1
  GSPT1 substrate protein remaining %: A ("A" is defined as 0% ≤ substrate protein remaining % ≤ 80%)
WEE1
  WEE1 substrate protein remaining %: A ("A" is defined as 0% ≤ substrate protein remaining % ≤ 80%)
IKZF3
  IKZF3 substrate protein remaining %: B ("B" is defined as 80%< substrate protein remaining %≤ 100%)
IKZF1
  IKZF1 substrate protein remaining %: B ("B" is defined as 80%< substrate protein remaining %≤ 100%)

## O=C1CCN(N2Cc3cc(CN4CCN(C(c5ccccc5)c5cccnc5)CC4)ccc3C2=O)C(=O)N1 (stereo not drawn) [GT-06376, 1-(1-oxo-5-((4-(phenyl(pyridin-3-yl)methyl)piperazin-1-yl)methyl)isoindolin-2-yl)dihydropyrimidine-2,4(1H,3H)-dione]
CK1α
  CK1α substrate protein remaining %: B ("B" is defined as 80%< substrate protein remaining %≤ 100%)
IKZF2
  IKZF2 substrate protein remaining %: A ("A" is defined as 0% ≤ substrate protein remaining % ≤ 80%)
GSPT1
  GSPT1 substrate protein remaining %: A ("A" is defined as 0% ≤ substrate protein remaining % ≤ 80%)
WEE1
  WEE1 substrate protein remaining %: A ("A" is defined as 0% ≤ substrate protein remaining % ≤ 80%)
IKZF3
  IKZF3 substrate protein remaining %: B ("B" is defined as 80%< substrate protein remaining %≤ 100%)
IKZF1
  IKZF1 substrate protein remaining %: B ("B" is defined as 80%< substrate protein remaining %≤ 100%)

## O=C1CCN(N2C(=O)c3ccc(CN4CCN(C(c5ccccc5)c5cccnc5)CC4)cc3C2=O)C(=O)N1 (stereo not drawn) [GT-06377, 2-(2,4-dioxotetrahydropyrimidin-1(2H)-yl)-5-((4-(phenyl(pyridin-3-yl)methyl)piperazin-1-yl)methyl)isoindoline-1,3-dione]
CK1α
  CK1α substrate protein remaining %: B ("B" is defined as 80%< substrate protein remaining %≤ 100%)
IKZF2
  IKZF2 substrate protein remaining %: A ("A" is defined as 0% ≤ substrate protein remaining % ≤ 80%)
GSPT1
  GSPT1 substrate protein remaining %: B ("B" is defined as 80%< substrate protein remaining %≤ 100%)
WEE1
  WEE1 substrate protein remaining %: A ("A" is defined as 0% ≤ substrate protein remaining % ≤ 80%)
IKZF3
  IKZF3 substrate protein remaining %: B ("B" is defined as 80%< substrate protein remaining %≤ 100%)
IKZF1
  IKZF1 substrate protein remaining %: B ("B" is defined as 80%< substrate protein remaining %≤ 100%)

## O=C1CCN(N2C(=O)c3ccc(CN4CCN(C(c5ccccc5)c5ccncc5)CC4)cc3C2=O)C(=O)N1 (stereo not drawn) [GT-06378, 2-(2,4-dioxotetrahydropyrimidin-1(2H)-yl)-5-((4-(phenyl(pyridin-4-yl)methyl)piperazin-1-yl)methyl)isoindoline-1,3-dione]
CK1α
  CK1α substrate protein remaining %: B ("B" is defined as 80%< substrate protein remaining %≤ 100%)
IKZF2
  IKZF2 substrate protein remaining %: A ("A" is defined as 0% ≤ substrate protein remaining % ≤ 80%)
GSPT1
  GSPT1 substrate protein remaining %: B ("B" is defined as 80%< substrate protein remaining %≤ 100%)
WEE1
  WEE1 substrate protein remaining %: A ("A" is defined as 0% ≤ substrate protein remaining % ≤ 80%)
IKZF3
  IKZF3 substrate protein remaining %: A ("A" is defined as 0% ≤ substrate protein remaining % ≤ 80%)
IKZF1
  IKZF1 substrate protein remaining %: B ("B" is defined as 80%< substrate protein remaining %≤ 100%)

## O=C1CCN(N2C(=O)c3ccc(CN4CCN(C(c5ccccn5)c5ccccn5)CC4)cc3C2=O)C(=O)N1 [GT-06379, 5-((4-(di(pyridin-2-yl)methyl)piperazin-1-yl)methyl)-2-(2,4-dioxotetrahydropyrimidin-1(2H)-yl)isoindoline-1,3-dione]
CK1α
  CK1α substrate protein remaining %: B ("B" is defined as 80%< substrate protein remaining %≤ 100%)
IKZF2
  IKZF2 substrate protein remaining %: A ("A" is defined as 0% ≤ substrate protein remaining % ≤ 80%)
GSPT1
  GSPT1 substrate protein remaining %: A ("A" is defined as 0% ≤ substrate protein remaining % ≤ 80%)
WEE1
  WEE1 substrate protein remaining %: A ("A" is defined as 0% ≤ substrate protein remaining % ≤ 80%)
IKZF3
  IKZF3 substrate protein remaining %: A ("A" is defined as 0% ≤ substrate protein remaining % ≤ 80%)
IKZF1
  IKZF1 substrate protein remaining %: B ("B" is defined as 80%< substrate protein remaining %≤ 100%)

## CC1(C)CN(Cc2ccc3c(c2)C(=O)N(N2CCC(=O)NC2=O)C3=O)CCN1C(c1ccccc1)c1ccccc1 [GT-06385, 5-((4-benzhydryl-3,3-dimethylpiperazin-1-yl)methyl)-2-(2,4-dioxotetrahydropyrimidin-1(2H)-yl)isoindoline-1,3-dione]
CK1α
  CK1α substrate protein remaining %: B ("B" is defined as 80%< substrate protein remaining %≤ 100%)
IKZF2
  IKZF2 substrate protein remaining %: B ("B" is defined as 80%< substrate protein remaining %≤ 100%)
GSPT1
  GSPT1 substrate protein remaining %: A ("A" is defined as 0% ≤ substrate protein remaining % ≤ 80%)
WEE1
  WEE1 substrate protein remaining %: A ("A" is defined as 0% ≤ substrate protein remaining % ≤ 80%)
IKZF3
  IKZF3 substrate protein remaining %: A ("A" is defined as 0% ≤ substrate protein remaining % ≤ 80%)
IKZF1
  IKZF1 substrate protein remaining %: B ("B" is defined as 80%< substrate protein remaining %≤ 100%)

## O=C1CCN(N2Cc3cc(CN4CCC(c5nccc(Cl)c5Cl)CC4)ccc3C2=O)C(=O)N1 [GT-06388, 1-(5-((4-(3,4-dichloropyridin-2-yl)piperidin-1-yl)methyl)-1-oxoisoindolin-2-yl)dihydropyrimidine-2,4(1H,3H)-dione]
CK1α
  CK1α substrate protein remaining %: B ("B" is defined as 80%< substrate protein remaining %≤ 100%)
IKZF2
  IKZF2 substrate protein remaining %: B ("B" is defined as 80%< substrate protein remaining %≤ 100%)
GSPT1
  GSPT1 substrate protein remaining %: A ("A" is defined as 0% ≤ substrate protein remaining % ≤ 80%)
WEE1
  WEE1 substrate protein remaining %: B ("B" is defined as 80%< substrate protein remaining %≤ 100%)
IKZF3
  IKZF3 substrate protein remaining %: B ("B" is defined as 80%< substrate protein remaining %≤ 100%)
IKZF1
  IKZF1 substrate protein remaining %: B ("B" is defined as 80%< substrate protein remaining %≤ 100%)

## O=C1CCN(N2Cc3cc(CN4CCC(c5ccnc(Cl)c5Cl)CC4)ccc3C2=O)C(=O)N1 [GT-06390, 1-(5-((4-(2,3-dichloropyridin-4-yl)piperidin-1-yl)methyl)-1-oxoisoindolin-2-yl)dihydropyrimidine-2,4(1H,3H)-dione]
CK1α
  CK1α substrate protein remaining %: B ("B" is defined as 80%< substrate protein remaining %≤ 100%)
IKZF2
  IKZF2 substrate protein remaining %: B ("B" is defined as 80%< substrate protein remaining %≤ 100%)
GSPT1
  GSPT1 substrate protein remaining %: A ("A" is defined as 0% ≤ substrate protein remaining % ≤ 80%)
WEE1
  WEE1 substrate protein remaining %: B ("B" is defined as 80%< substrate protein remaining %≤ 100%)
IKZF3
  IKZF3 substrate protein remaining %: B ("B" is defined as 80%< substrate protein remaining %≤ 100%)
IKZF1
  IKZF1 substrate protein remaining %: B ("B" is defined as 80%< substrate protein remaining %≤ 100%)

## O=C1CCN(N2Cc3cc(CN4CC=C(c5cncc(Cl)c5)CC4)ccc3C2=O)C(=O)N1 [GT-06394, 1-(5-((5-chloro-3',6'-dihydro-[3,4'-bipyridin]-1'(2'H)-yl)methyl)-1-oxoisoindolin-2-yl)dihydropyrimidine-2,4(1H,3H)-dione]
CK1α
  CK1α substrate protein remaining %: A ("A" is defined as 0% ≤ substrate protein remaining % ≤ 80%)
IKZF2
  IKZF2 substrate protein remaining %: A ("A" is defined as 0% ≤ substrate protein remaining % ≤ 80%)
GSPT1
  GSPT1 substrate protein remaining %: A ("A" is defined as 0% ≤ substrate protein remaining % ≤ 80%)
WEE1
  WEE1 substrate protein remaining %: B ("B" is defined as 80%< substrate protein remaining %≤ 100%)
IKZF3
  IKZF3 substrate protein remaining %: B ("B" is defined as 80%< substrate protein remaining %≤ 100%)
IKZF1
  IKZF1 substrate protein remaining %: B ("B" is defined as 80%< substrate protein remaining %≤ 100%)

## O=C1CCN(N2Cc3cc(CN4CC=C(c5ncccc5F)CC4)ccc3C2=O)C(=O)N1 [GT-06395, 1-(5-((3-fluoro-3',6'-dihydro-[2,4'-bipyridin]-1'(2'H)-yl)methyl)-1-oxoisoindolin-2-yl)dihydropyrimidine-2,4(1H,3H)-dione]
CK1α
  CK1α substrate protein remaining %: A ("A" is defined as 0% ≤ substrate protein remaining % ≤ 80%)
IKZF2
  IKZF2 substrate protein remaining %: B ("B" is defined as 80%< substrate protein remaining %≤ 100%)
GSPT1
  GSPT1 substrate protein remaining %: A ("A" is defined as 0% ≤ substrate protein remaining % ≤ 80%)
WEE1
  WEE1 substrate protein remaining %: B ("B" is defined as 80%< substrate protein remaining %≤ 100%)
IKZF3
  IKZF3 substrate protein remaining %: B ("B" is defined as 80%< substrate protein remaining %≤ 100%)
IKZF1
  IKZF1 substrate protein remaining %: B ("B" is defined as 80%< substrate protein remaining %≤ 100%)
